Experiments:
[1] = molecular target: T1, E3 ubiquitin-protein ligase Mdm2 [1-118] (Homo sapiens, UniProt Q00987); assay: NMR Measurements; details: pH 7.4; 15 °C
T1 construct: 1-118

[2] = molecular target: T2, E3 ubiquitin-protein ligase Mdm2 [1-118,T47W] (Homo sapiens, UniProt Q00987, T47W); assay: Microscale Thermophoresis (MT) Binding Assay; details: pH 7.4; 25 °C
T2 construct: 1-118
Protocol: Experiments were performed in 50 mM phosphate buffer at pH 7.4 containing 150 mM NaCl, 5 mM DTT, and 5% DMSO.

SMILES	Kd [1]	Kd [2]
O=C1OC(O)(Cc2ccc(Cl)cc2)C(Cc2ccc(Cl)cc2)=C1c1c[nH]c2cc(Cl)ccc12 (centres undefined) [4,5-di(4-chlorobenzyl)-3-(6-chloro-1H-indol-3-yl)-5-hydroxy-1,5-dihydro-2H-furan-2-one (2b)]	86 µM	1.5 µM
O=C1OC(O)(Cc2ccc(F)cc2)C(Cc2ccc(Cl)cc2)=C1c1c[nH]c2cc(Cl)ccc12 (centres undefined) [4-(4-chlorobenzyl)-3-(6-chloro-1H-indol-3-yl)-5-(4-fluorobenzyl)-5-hydroxy-1,5-dihydro-2H-furan-2-one (2d)]		26 µM
O=C1C(c2ccc(Cl)cc2)=C(c2c[nH]c3cc(Cl)ccc23)C(O)N1Cc1ccc(Cl)cc1 (centres undefined) [N-(4-chlorobenzyl)-4-(6-chloro-1H-indol-3-yl)-3-(4-chlorophenyl)-5-hydroxy-1,5-dihydro-2H-pyrrol-2-on (1g)]	164 µM	24.4 µM
CN1C(=O)C(c2ccc(Cl)cc2)=C(c2cn(C)c3cc(Cl)ccc23)C1(O)Cc1ccc(Cl)cc1 (centres undefined) [N-Methyl-5-(4-chlorobenzyl)-4-(6-chloro-1-methyl-1H-indol-3-yl)-3-(4-chlorophenyl)-5-hydroxy-1,5-dihydro-2H-pyrrol-2-one (1e)]	365 µM	40.5 µM
CN1C(=O)C(c2cn(C)c3cc(Cl)ccc23)=C(c2ccc(Cl)cc2)C1(O)Cc1ccc(Cl)cc1 (centres undefined) [N-methyl-5-(4-chlorobenzyl)-3-(6-chloro-1-methyl-1H-indol-3-yl)-4-(4-chlorophenyl)-5-hydroxy-1,5-dihydro-2H-pyrrol-2-one (1f)]	246 µM	30.4 µM
CN1C(=O)C(c2c[nH]c3cc(Cl)ccc23)=C(c2ccc(Cl)cc2)C1(O)Cc1ccc(Cl)cc1 (centres undefined) [N-methyl-5-(4-chlorobenzyl)-3-(6-chloro-1H-indol-3-yl)-4-(4-chlorophenyl)-5-hydroxy-1,5-dihydro-2H-pyrrol-2-one (1d)]	192 µM	27.7 µM

Next, values leading:

Kd [1]	Kd [2]	SMILES
18 µM	28.7 µM	O=C1OC(O)(Cc2ccc(F)cc2)C(c2c[nH]c3cc(Cl)ccc23)=C1Cc1ccc(Cl)cc1 (centres undefined) [3-(4-Chlorobenzyl)-4-(6-chloro-1H-indol-3-yl)-5-(4-fluorobenzyl)-5-hydroxy-1,5-dihydro-2H-furan-2-one (2c)]
60 µM	1.3 µM	O=C1OC(O)(Cc2ccc(Cl)cc2)C(c2c[nH]c3cc(Cl)ccc23)=C1c1ccc(Cl)cc1 (centres undefined) [5-(4-Chlorobenzyl)-4-(6-chloro-1H-indol-3-yl)-3-(4-chlorophenyl)-5-hydroxy-1,5-dihydro-2H-furan-2-one (2e)]
68 µM	7 µM	O=C1OC(O)(Cc2ccc(Cl)cc2)C(c2ccc(Cl)cc2)=C1c1c[nH]c2cc(Cl)ccc12 (centres undefined) [5-(4-chlorobenzyl)-3-(6-chloro-1H-indol-3-yl)-4-(4-chlorophenyl)-5-hydroxy-1,5-dihydro-2H-furan-2-one (2f)]
40 µM	2.1 µM	O=C1C(c2c[nH]c3cc(Cl)ccc23)=C(c2ccc(Cl)cc2)C(O)N1Cc1ccc(Cl)cc1 (centres undefined) [N-(4-Chlorobenzyl)-3-(6-chloro-1H-indol-3-yl)-4-(4-chlorophenyl)-5-hydroxy-1,5-dihydro-2H-pyrrol-2-on (1h)]
< 1 µM	0.5 µM	CN1C(=O)C(Cc2ccc(Cl)cc2)=C(c2c[nH]c3cc(Cl)ccc23)C1(O)Cc1ccc(Cl)cc1 (centres undefined) [N-Methyl-3,5-di(4-chlorobenzyl)-4-(6-chloro-1H-indol-3-yl)-5-hydroxy-1,5-dihydro-2H-pyrrol-2-one (1a)]
51 µM	18.7 µM	CN1C(=O)C(c2ccc(Cl)cc2)=C(c2c[nH]c3cc(Cl)ccc23)C1(O)Cc1ccc(Cl)cc1 (centres undefined) [N-Methyl-5-(4-chlorobenzyl)-4-(6-chloro-1H-indol-3-yl)-3-(4-chlorophenyl)-5-hydroxy-1,5-dihydro-2H-pyrrol-2-one (1c)]
56 µM		CN1C(=O)C(c2c[nH]c3cc(Cl)ccc23)=C(Cc2ccc(Cl)cc2)C1(O)Cc1ccc(Cl)cc1 (centres undefined) [N-methyl-4,5-di(4-chlorobenzyl)-3-(6-chloro-1H-indol-3-yl)-5-hydroxy-1,5-dihydro-2H-pyrrol-2-one (1b)]
